# According to patent US20200338115A1, “PHARMACEUTICAL COMPOSITION FOR PREVENTION OF RECURRENT URINARY TRACT INFECTION” (priority 2019, published 2020):
# What was measured:
# [1] = system: uropathogenic Escherichia coli (UPEC); test: Rat UTI model, low-dose PPS (Example 3): urine bacterial counts; assay type: in vivo, SD rats; details: for urine bacterial counts compared with UTI model group: Day 3
# From the text: (§1) The purpose of the current example is to investigate effects of a reduced dosage of PPS for preventing UTI in the rat URI model. The SD rats are randomized and grouped into a control group (N=7), an UTI model group (N=10), a normal PPS dosage group (N=10), and a reduced PPS dosage group (N=5). The UTI model group, the normal PPS dosage group, and the reduced PPS dosage group are infected with UPEC on Day 1. The method of infection and the amount of UPEC being injected to the rats of the current study are the same as the UPEC infection in Example 1. […] The control group is not infected by the UPEC or treated by PPS. Urine samples and the blood samples of the rats are collected on Day 0, 3, and 7, using the same techniques and tools as described in Example 1. The collected urine samples are diluted 10, 10^2, 10^3, 10^4, and 10^5 folds, and the diluted urine samples are cultured on BSA plates and incubated for 12 hours at 37° C. UPEC colonies on the BSA plates are counted after the incubation. In FIGS. 10 and 11, the UTI model group is denoted as “UTI”, the normal PPS dosage group is denoted as “UROpre”, and the reduced PPS dosage group is denoted as “low UROpre”.
# [2] = in vivo
# Experimental: The 27 patients remained are randomized to a PPS group (N=13) and a control group (N=14). The PPS are orally administered to the PPS group according to a continuous daily dosing regimen of 100 mg, 3 times a day for the first 8 weeks (total administered amount is 300 mg PPS per day). Then, the dosing regimen is changed to 100 mg 2 times a day for the remaining 8 weeks (total administered amount is 200 mg PPS per day). The PPS can be taken either 1 hour before or 2 hours after meal. Any forms of UTI prophylaxis or treatment, including antibiotics, hyaluronic acid instillation, cranberry, nonsteroidal anti-inflammatory drugs, or steroids, are forbidden in the study period of the current trial. […] The patients in both groups are visited every four week from the 0th week (Visit 2), the 4th week (Visit 3), the 8th week (Visit 4), the 12th week (Visit 5), to the 16th week (Visit 6), and Visit 6 is marked as the end of the current trial.
# The patients are required to report relevant urinary tract symptoms to an investigator, during each of the visits. […] Information regarding adverse events, including grade of severity (according to National Cancer Institute Common Terminology Criteria for Adverse Events, version 5.0), timing, and their relationship with the medication assessed by the investigator, are also recorded at each of the visits. […]
# [3] = system: uropathogenic Escherichia coli (UPEC); test: Rat UTI model (Example 1): urine bacterial counts after oral PPS; assay type: in vivo, Sprague-Dawley (SD) rats
# From the text: (§2) UPEC is known as the primary cause of UTI.
# (§3) The rats are sacrificed at Day 14.
# [4] = system: peripheral white blood cell (WBC) counts; test: Rat UTI model (Example 1): peripheral white blood cell counts; assay type: in vivo, Sprague-Dawley (SD) rats; details: PPS 30 mg/kg/day oral Day −14 to Day 0
# From the text: as §2, §3
# FIG. 4 is a bar chart comparing peripheral white blood cell (WBC) counts in the control group, the UTI model group, and the PPS prevention group, in accordance with an embodiment of the present disclosure. The WBC counts in different groups reflect conditions of the UPEC infection in the rats: a higher WBC count may represent a more severe UPEC infection. […] The WBC counts in the UTI model group have remained as the highest among 3 groups on Day 1, Day 3, and Day 7.
# [5] = system: peripheral red blood cell (RBC) counts; test: Rat UTI model (Example 1): peripheral red blood cell counts; details: PPS 30 mg/kg/day oral Day −14 to Day 0; control, UTI model and PPS prevention groups
# Experimental: The current example treats Sprague-Dawley (SD) rats with uropathogenic Escherichia coli (UPEC) to establish the rat UTI model. […] The UPEC used in the current example is ATCC®700336™, designation: J96 (serotype O4:K6), purchased from Food Industry Research and Development Institute of Taiwan. The UPEC is stored in trypticase soy agar/broth, and is centrifuged at 5,000 rpm for 10 minutes. Pellets of the UPEC after the centrifugation are dissolved in 10 mL sterile phosphate buffered saline (PBS). The cell density of the UPEC is adjusted to an optical density (OD600) of 1 to 1.1. This optical density is corresponded to the cell density of 8×10^7 to 2×10^8 colony forming units (CFU)/mL. The UPEC is then made into a 250 μL 0.9% N/S solution of 8×10^7 CFU for treating the rats.
# The UTI model group and the PPS prevention group are infected with the UPEC by trans-urethral catherization on Day 1. The PPS prevention group is treated with the PPS by oral gavage with a 18G stainless-steel gavage needle attached to a 3 mL tuberculin syringe from Day −14 to Day 0. The PPS dosage for the rats in the current example is 30 mg/kg/day. […] The UPEC in the LB broths and on the LB agar plates are quantified after the incubation. […]
# bladder epithelium = test: Rat UTI model (Example 1): H/E staining of bladder tissue; assay type: in vivo, Sprague-Dawley (SD) rats; details: PPS 30 mg/kg/day oral Day −14 to Day 0; rats sacrificed at Day 14
# From the text: as §2, §3
# peripheral WBC count = test: Rat UTI model, low-dose PPS (Example 3): peripheral WBC count percentages; assay type: in vivo, SD rats; details: 8.5 mg/kg/day oral Day −14 to Day 0
# From the text: as §1
# FIG. 11 is a bar chart comparing the peripheral WBC count percentages of the control group, the reduced PPS dosage group, and the UTI model group, in accordance with an embodiment of the present disclosure. The WBC counts reflects a current urinary tract infection episode, the WBC count percentage can be a relative indicator comparing the WBC counts before the infection and after the infection. The WBC count percentages in FIG. 11 are used to examine the efficacy of the reduced PPS dosage in the rat UTI model. The WBC counts on Day 0 in the control group, the reduced PPS dosage group, and the UTI group are designated as 100% in FIG. 11. The WBC count percentages of the 3 groups are elevated on Day 1, reflecting more WBCs entering the peripheral blood after the infection. On Day 3, the WBC count percentage of the low UROpre group is about 120%, whereas the WBC count percentage of the UTI group is about 130%.
# [6] = orally administered PPS, previous studies; cited from earlier work
# IL-1β = test: Rat UTI model (Example 1): Luminex assay of peripheral blood IL-1β; assay type: in vivo, Sprague-Dawley (SD) rats; details: PPS 30 mg/kg/day oral Day −14 to Day 0; Day 3
# From the text: as §2, §3
# (§4) Luminex assays are used to evaluate peripheral blood biomarkers relevant to infection or inflammation. FIG. 6 is a bar chart comparing the Luminex assay results for IL-1β in the control group, the UTI model group, and the PPS prevention group, in accordance with an embodiment of the present disclosure. IL-1β level is relevant to a current inflammation or infection, and a higher IL-1β level indicates a more severe inflammation. […] FIG. 7 is a bar chart comparing the Luminex assay results for TNF-α in the control group, the UTI model group, and the PPS prevention group, in accordance with an embodiment of the present disclosure. TNF-α is a cytokine that promotes inflammatory responses, and a higher TNF-α level indicates a more severe inflammation in the rats.
# TNF-α = test: Rat UTI model (Example 1): Luminex assay of peripheral blood TNF-α; assay type: in vivo, Sprague-Dawley (SD) rats; details: PPS 30 mg/kg/day oral Day −14 to Day 0; Day 3 and Day 14
# From the text: as §2, §3, §4
# [7] = pH 6; cited from earlier work
# [8] = system: recurrent urinary tract infection (rUTI); test: Phase II randomized controlled trial of oral PPS for prevention of rUTI (Example 2): efficacy; assay type: in vivo, human subjects
# From the text: The current example is a multicenter, prospective, open-label, phase II, randomized controlled trial. The purpose of the current example is to investigate the effects of orally administered PPS in the prevention of rUTI in the human subjects. The study period of the current trial is 16 weeks, which is expected to cover most of the rUTI episodes.
# The human subjects in the current example are screened and recruited in the OPD. Eligible patients are 20-70 year-old female patients with confirmed UTI ≥2 times in the past 6 months, or ≥3 times in the past 12 months, and had prior antibiotics treatment for previous UTI episodes(s). The eligible patients are without lower urinary tract symptoms and completely recovered from the last UTI episode. Patients with the following criteria are also excluded: allergic reaction to PPS, undergoing surgery within 24 week in a follow-up period of the current trial, participating in any intervention study 90 days before screening, bladder instillation with hyaluronic acid within 3 months before screening, pregnancy, breast feeding, upper urinary tract infection, fever >38° C., serum WBC count greater than 12,000/mm^3, urinary catheterization within 1 week, urinary tract anomalies, interstitial cystitis, urolithiasis, renal insufficiency, cancer history, immunocompromised, organ transplant history, pelvic organ prolapse stage II or higher, post-voiding residual urine more than 100 ml, stress or urge urinary incontinence, and positive urine culture during screening. 45 patients are screened for eligibility, with only 27 patients remained and 18 patients are excluded. The screening in the current trial is defined as Visit 1.
# For analyzing results of the current study, all statistical analyses are performed using MedCalc Statistical Software version 19.0.3. The Mann-Whitney U test and Student's t-test are used to compare medians and means, respectively. Contingency tables are constructed for comparisons using a chi-square test and Fisher's exact test. The Kaplan—Meier method is used for the construction of survival curves. A log-rank test and Cox proportional hazard model are used to compare recurrence-free survival duration between groups. All tests are 2-tailed. A P-value <0.05 is considered significant.
substance,measurement,setting,value
pentosan polysulfate sodium [PPS],therapeutic effect in the rat UTI model,"[1]; 8.5 mg/kg/day orally administered PPS, 14 days",therapeutically effective
same,urine bacterial counts compared with UTI model group,[1]; normal PPS dosage 30 mg/kg/day oral Day −14 to Day 0 (UROpre),lower than the UTI model group
same,urine bacterial counts compared with UTI model group,[1]; reduced PPS dosage 8.5 mg/kg/day oral Day −14 to Day 0 (low UROpre),lower than the UTI model group
same,adverse effects observed in the trial,[2],none of the above adverse effects are observed
same,"complete blood counts, liver function tests and coagulant-related tests",[2],no abnormalities
same,urine bacterial counts compared with UTI model group,"[3]; PPS 30 mg/kg/day oral Day −14 to Day 0, UPEC on Day 1, Day 1, Day 3 and Day 7",lower than the urine bacterial counts in the UTI model group
same,urine bacterial counts,"[3]; PPS 30 mg/kg/day oral gavage Day −14 to Day 0, Day 0",below 10^3 CFU/mL
same,overall effect on UTI in the rats,[3]; PPS oral 30 mg/kg/day for 14 days,effectively reduces UTI
same,peripheral WBC counts compared with UTI model group,"[4]; Day 1, Day 3 and Day 7",fewer than the WBC counts in the UTI model group
same,"peripheral WBC counts, time course",[4]; after Day 3,in steady decline after Day 3
same,"peripheral RBC counts, difference among groups",[5],no significant differences
same,H/E staining result of bladder tissue,bladder epithelium,fresh layer of accumulated epithelial cells
same,peripheral WBC count percentage (Day 0 = 100%),peripheral WBC count; Day 1,elevated
same,peripheral WBC count percentage (Day 0 = 100%),"peripheral WBC count; Day 3, UTI group about 130%",about 120%
same,peripheral WBC count percentage (Day 0 = 100%),peripheral WBC count; Day 7,about 60%
same,peripheral WBC count percentage compared with UTI group,peripheral WBC count; Day 7,significantly lower than that of the UTI group
same,adverse effect: abdominal pain,[6],2%
same,adverse effect: diarrhea,[6],1-14.9%
same,adverse effect: dizziness,[6],1%
same,adverse effect: dyspepsia,[6],2%
same,adverse effect: headache,[6],1-2.9%
same,adverse effect: liver function abnormalities,[6],1-2%
same,adverse effect: nausea,[6],1.4%-7.9%
same,adverse effect: rash,[6],3%
same,adverse effect: rectal hemorrhage,[6],4%
same,peripheral IL-1β level compared with UTI model group,IL-1β,significantly lower than the UTI model group
same,peripheral TNF-α levels compared with UTI model group,TNF-α,lower TNF-α levels than the UTI model group
same,solubility in water,[7],up to 50%
same,overall UTI recurrence free survival compared with control group (Kaplan-Meier),"[8]; 26 patients, log-rank test p=0.0004",significantly higher in the PPS group than in the control group
same,"UTI recurrence, %","[8]; PPS group N = 12, 300 mg/day for 8 weeks then 200 mg/day for 8 weeks, oral, 16 weeks, control 64.3%, p <0.001",0%
same,lower urinary tract symptoms or positive urine analysis,"[8]; PPS group, 16-week study period",none of the patients in the PPS group had lower urinary tract symptoms nor positive urine analysis
same,efficacy in preventing rUTI in the human subjects,"[8]; about 3.34 mg/kg/day, total 200 mg PPS per day, remaining 8 weeks",also therapeutically effective
same,efficacy in preventing rUTI in the human subjects,"[8]; less than 5 mg/kg/day, total 300 mg PPS per day (reference weight 60 kg), first 8 weeks",proven to be therapeutically effective
same,protective effect in preventing rUTI in the human subjects,"[8]; oral administration of PPS, conclusion of the trial",excellent protective effect
